Assay results taken from patent publication US12116358B2, “Substituted indoles and methods of use thereof” (EPIZYME, INC., priority 2018, dated 2024).
Like-named read-outs stand apart in the source and are kept apart here.

What was measured:
SETD2(1434-1711) = biological target: T1, SETD2(1434-1711) (Homo sapiens, UniProt Q9BYW2); assay: SETD2 (1434-1711) assay; assay type: biochemical; details: read-out: SETD2 (1434-1711)
T1 construct: SETD2 (1434-1711) Assay; catalogue N/A
T1 sequence (Q9BYW2 1434-1711): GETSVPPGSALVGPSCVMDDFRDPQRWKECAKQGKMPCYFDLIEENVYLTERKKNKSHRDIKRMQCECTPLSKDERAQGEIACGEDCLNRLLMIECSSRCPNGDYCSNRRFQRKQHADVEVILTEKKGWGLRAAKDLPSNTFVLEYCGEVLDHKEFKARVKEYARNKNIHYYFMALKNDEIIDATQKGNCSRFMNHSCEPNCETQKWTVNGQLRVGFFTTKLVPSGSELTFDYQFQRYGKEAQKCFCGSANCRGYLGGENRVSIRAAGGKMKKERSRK

H3K36me3 in A549 cells = assay: In-Cell Western (ICW) assay of SETD2 inhibitors (A549 assay); assay type: cell-based, human; details: A549 cells, read-out: SETD2 A549
How it was run: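 H3K36me3 In-Cell Western: cells exposed to compound for 3 days at 4,000 cells/well, 37° C. DRAQ5 (1:1000) marked cell number, with 700/800-channel Licor read-out.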

For `CCN(CC)CCCC(NC(=O)c1cc2cccc(C)c2[nH]1)c1ncccc1C` (stereo not shown) [compound 582], which IC50 (SETD2(1434-1711)) is on record?
The IC50 was 31.2 µM.

And the IC50 (H3K36me3 in A549 cells; Homo sapiens)?
The IC50 was over 25 µM.

With `Cc1ccc(C(=O)N2CCNCC2)cc1C(NC(=O)c1cc2cccc(C)c2[nH]1)C1CC1` (stereo not shown) [compound 583] as the compound, how does the IC50 (SETD2(1434-1711)) read?
Its IC50 is 32.4 µM.

And the IC50 (H3K36me3 in A549 cells; Homo sapiens)?
The IC50 was over 25 µM.

Which IC50 (SETD2(1434-1711)) does the source give for `Cc1cc(C(=O)N[C@@H]2CC[C@@H]2N)cnc1C(NC(=O)c1cc2cccc(C)c2[nH]1)C1CC1` (stereo partly shown) [compound 584] here?
The IC50 was 33.7 µM.

What about the IC50 (H3K36me3 in A549 cells; Homo sapiens) of the same compound?
The IC50 was over 25 µM.

For `CNC(=O)C(NC(=O)c1cc2c(F)ccc(C)c2[nH]1)c1ccccn1` (stereo not shown) [compound 585], which IC50 (SETD2(1434-1711)) is on record?
The IC50 was 34 µM.

What about the IC50 (H3K36me3 in A549 cells) of the same compound?
Its IC50 is over 25 µM.

Which IC50 (SETD2(1434-1711)) does the source give for `CCOC(=O)CC(NC(=O)c1cc2cccc(C)c2[nH]1)c1ccccc1` (stereo not shown) [compound 586] here?
Its IC50 is 36.4 µM.

And the IC50 (H3K36me3 in A549 cells; Homo sapiens)?
The IC50 was over 25 µM.

For `Cc1cccc2cc(C(=O)N[C@H]3CC[C@H](NC(=O)CCN4CCCCC4)CC3)[nH]c12` [compound 587], which IC50 (SETD2(1434-1711)) is on record?
Its IC50 is 37.4 µM.

And the IC50 (H3K36me3 in A549 cells; Homo sapiens)?
The IC50 was over 25 µM.

What does the source list for `Cc1cccc2cc(C(=O)N[C@@H]3CCN(C(=O)CCCN)C[C@@H]3C)[nH]c12` [compound 588]?
IC50 (SETD2(1434-1711)): 40.4 µM; IC50 (H3K36me3 in A549 cells; Homo sapiens): > 25 µM

With `CCN(CC)CCC(=O)N[C@H]1CC[C@H](NC(=O)c2cc3cccc(C)c3[nH]2)CC1` [compound 589] as the compound, how does the IC50 (SETD2(1434-1711)) read?
The IC50 was 43.6 µM.

What about the IC50 (H3K36me3 in A549 cells; Homo sapiens) of the same compound?
Its IC50 is over 25 µM.

Which results are given for `Cc1cccnc1C1(NC(=O)c2cc3cccc(C)c3[nH]2)CNC1` [compound 591]?
IC50 (SETD2(1434-1711)): > 50 µM; IC50 (H3K36me3 in A549 cells; Homo sapiens): > 25 µM

Which IC50 (SETD2(1434-1711)) does the source give for `Cc1cccc2cc(C(=O)NC3CCN(C(=O)CCCN)C3)[nH]c12` (stereo not shown) [compound 593] here?
Its IC50 is over 50 µM.

What about the IC50 (H3K36me3 in A549 cells; Homo sapiens) of the same compound?
Its IC50 is over 25 µM.

What does the source list for `Cc1cccc2cc(C(=O)NC3CN(C(=O)CCCN)C3)[nH]c12` [compound 594]?
IC50 (SETD2(1434-1711)): > 50 µM; IC50 (H3K36me3 in A549 cells; Homo sapiens): > 25 µM

With `Cc1cccnc1C(C)(C)NC(=O)c1cc2cccc(C)c2[nH]1` [compound 595] as the compound, how does the IC50 (SETD2(1434-1711)) read?
The IC50 was over 50 µM.

And the IC50 (H3K36me3 in A549 cells)?
The IC50 was over 25 µM.

Which IC50 (SETD2(1434-1711)) does the source give for `Cc1cccc2cc(C(=O)N[C@H]3C[C@@H](NC(=O)CCN)C3)[nH]c12` [compound 596] here?
The IC50 was over 50 µM.

And the IC50 (H3K36me3 in A549 cells; Homo sapiens)?
Its IC50 is over 25 µM.

What does the source list for `Cc1cccc2cc(C(=O)NC3CC(NC(=O)CCN)C3)[nH]c12` (stereo not shown) [compound 597]?
IC50 (SETD2(1434-1711)): > 50 µM; IC50 (H3K36me3 in A549 cells): > 25 µM

`Cc1cccnc1C(NC(=O)c1cc2ccnc(C)c2[nH]1)C1CC1` (stereo not shown) [compound 598] was tested. Which IC50 (SETD2(1434-1711)) did it give?
The IC50 was over 50 µM.

And the IC50 (H3K36me3 in A549 cells; Homo sapiens)?
Its IC50 is over 25 µM.

How did the IC50 (SETD2(1434-1711)) turn out when `Cc1cccc2cc(C(=O)NC3CCC(NC(=O)CCN)C3)[nH]c12` (stereo not shown) [compound 600] was run?
Its IC50 is over 50 µM.

And the IC50 (H3K36me3 in A549 cells; Homo sapiens)?
The IC50 was over 25 µM.

How did the IC50 (SETD2(1434-1711)) turn out when `Cc1cccnc1C(CN1CCOCC1)N(C)C(=O)c1cc2cccc(C)c2[nH]1` (stereo not shown) [compound 601] was run?
Its IC50 is over 50 µM.

What about the IC50 (H3K36me3 in A549 cells) of the same compound?
The IC50 was over 25 µM.

For `Cc1noc(CN)c1C(NC(=O)c1cc2cccc(C)c2[nH]1)C1CC1` (stereo not shown) [compound 602], which IC50 (SETD2(1434-1711)) is on record?
The IC50 was over 50 µM.

And the IC50 (H3K36me3 in A549 cells; Homo sapiens)?
The IC50 was over 25 µM.

With `Cc1cccc2cc(C(=O)NC(CN(C)C)c3cccnc3)[nH]c12` (stereo not shown) [compound 603] as the compound, how does the IC50 (SETD2(1434-1711)) read?
Its IC50 is over 50 µM.

What about the IC50 (H3K36me3 in A549 cells) of the same compound?
The IC50 was over 25 µM.

What does the source list for `Cc1cccnc1C(NC(=O)c1cc2ncccn2n1)C1CC1` (stereo not shown) [compound 604]?
IC50 (SETD2(1434-1711)): > 50 µM; IC50 (H3K36me3 in A549 cells; Homo sapiens): > 25 µM

Which IC50 (SETD2(1434-1711)) does the source give for `Cc1cccc2cc(C(=O)NC3CCC(NC(=O)Cc4cccnc4)CC3)[nH]c12` (stereo not shown) [compound 605] here?
The IC50 was over 50 µM.

What about the IC50 (H3K36me3 in A549 cells) of the same compound?
Its IC50 is over 25 µM.

Which IC50 (SETD2(1434-1711)) does the source give for `Cc1cccnc1C(NC(=O)c1cc2c(CO)ccc(C)c2[nH]1)C1CC1` (stereo not shown) [compound 606] here?
The IC50 was over 50 µM.

What about the IC50 (H3K36me3 in A549 cells) of the same compound?
The IC50 was over 25 µM.

What does the source list for `Cc1cccnc1C(NC(=O)C1Cc2cccc(C)c2N1)C1CC1` (stereo not shown) [compound 607]?
IC50 (SETD2(1434-1711)): > 50 µM; IC50 (H3K36me3 in A549 cells; Homo sapiens): > 25 µM

Which results are given for `Cc1cccnc1C(NC(=O)c1cc2cncc(C)c2[nH]1)C1CC1` (stereo not shown) [compound 608]?
IC50 (SETD2(1434-1711)): > 50 µM; IC50 (H3K36me3 in A549 cells): > 25 µM

With `Cc1ccc(F)c2cc(C(=O)Nc3cccc4cccnc34)[nH]c12` [compound 609] as the compound, how does the IC50 (SETD2(1434-1711)) read?
Its IC50 is over 50 µM.

What about the IC50 (H3K36me3 in A549 cells) of the same compound?
Its IC50 is over 25 µM.

With `Cc1ccc(F)c2cc(C(=O)Nc3cc(N4CCN(C)CC4)ccn3)[nH]c12` [compound 612] as the compound, how does the IC50 (SETD2(1434-1711)) read?
Its IC50 is over 50 µM.

And the IC50 (H3K36me3 in A549 cells; Homo sapiens)?
The IC50 was over 25 µM.
